Data from patent US20250057819A1, “DRUG COMBINATIONS FOR INHIBITING CORONAVIRUS REPLICATION” (priority 2021, published 2025).
Counter-ions that a name gives are not always drawn. Like-named read-outs stand apart in the source and are kept apart here.

Experiments:
[1] = tested on: SARS-CoV-2; conditions: reports from in vitro studies (ref. 16); cited from earlier work
[2] = tested on: Covid-19; conditions: adults hospitalized with Covid-19 (ref. 17); cited from earlier work
[3] = tested on: Huh7.5 cells; experiment: Cell viability assay (MTT) in Huh7.5 cells; format: cell-based, human; conditions: Huh7.5 (B), read-out: SARS-CoV-2 CC50
Experimental: (§1) Cell viability was monitored by a mitochondrial activity test using methyl-thiazolyl-tetrazolium (MTT, Sigma). After 48 hours of drug treatment, cells were treated with 1 mg/ml of MTT during 3 hours at 37° C. The supernatants were removed and the MTT crystals were dissolved using DMSO and a shaker. The absorbance was read with a Tecan Spark at 570 nm with reference at 650 nm.
(§2) Only the most promising molecules or those studied in synergy were tested in Calu3 cells.

[4] = tested on: Calu3 cells; experiment: Cell viability assay (MTT) in Calu3 cells; format: cell-based, Human; conditions: Calu3 (C), read-out: SARS-CoV-2 CC50
Experimental: as §1, §2

[5] = tested on: SARS-CoV-2; experiment: Drug tests in SARS-CoV-2 model, Calu3 cells, viral titration by plaque assay in Vero E6; conditions: read-out: SARS-CoV-2 EC50; Calu3 (C), MOI 0.05, 48 h treatment
[6] = tested on: SARS-CoV-2; experiment: microbe, parasite or virus in culture; format: cell-based; conditions: read-out: SARS-CoV-2 EC50
[7] = tested on: rHCoVs-OC43; experiment: organism not typed; format: cell-based; conditions: for IC50: drug 2 alone (fast synergy screening table), read-out: IC50; for EC50: drug alone, HRT-18 cells, MOI 0.025, 48 h treatment, decrease of Rluc, read-out: EC50
[8] = tested on: HRT-18 cells; experiment: Cell viability assay (MTT) in HRT-18 cells
[9] = Cell viability assay (MTT) in Huh7.5 cells; format: cell-based, human; conditions: human, Huh7.5 cells, Huh7.5 (B), read-out: SARS-CoV-2 CC50
Experimental: as §1, §2

[10] = Cell viability assay (MTT) in Calu3 cells; format: cell-based, Human; conditions: human, Calu3 cells, Calu3 (C), read-out: SARS-CoV-2 CC50
Experimental: as §1, §2

[11] = Cell viability assay (MTT) in HRT-18 cells; conditions: human, CC50 (μM)
[12] = drug 2 alone (fast synergy screening table)
[13] = drug alone, HRT-18 cells, 48 h treatment, MTT
[14] = Severe acute respiratory syndrome coronavirus 2, Huh7.5, 48 h

Structure (SMILES): Cc1cccc(C)c1OCC(=O)N[C@@H](Cc1ccccc1)[C@@H](O)C[C@H](Cc1ccccc1)NC(=O)[C@H](C(C)C)N1CCCNC1=O [Lopinavir]
- EC50 [1]: 26000 nM
- clinical benefit [2]: no benefit was observed

Structure (SMILES): CC(C)C(=O)OC[C@H]1O[C@@H](n2cc/c(=N\O)[nH]c2=O)[C@H](O)[C@@H]1O [Molnupinavir]
- CC50 [3]: > 10000 nM
- CC50 [4]: > 10000 nM
- EC50 [5]: 35 nM
- EC50 [6]: 84 nM

Structure (SMILES): COc1c(C)c2c(c(O)c1C/C=C(\C)CCC(=O)OCCN1CCOCC1)C(=O)OC2 [Mycophenolate mofetil]
- CC50 [3]: 9100 nM
- EC50 [6]: 1180 nM
- IC50 [7]: 180 nM
- EC50 [7]: 180 nM
- CC50 [8, 12]: > 10000 nM
- CC50 [8, 13]: > 10000 nM

Structure (SMILES): CCC(CC)COC(=O)[C@H](C)N[P@](=O)(OC[C@H]1O[C@@](C#N)(c2ccc3c(N)ncnn23)[C@H](O)[C@@H]1O)Oc1ccccc1 [Remdesivir]
- CC50 at 48 h [9]: > 10000 nM
- CC50 at 48 h [10]: > 10000 nM
- EC50 [5]: 4 nM
- EC50 [6, 14]: ≤ 1 nM
- IC50 ([7]; 48 h): 34 nM
- IC50 [7]: 34 nM
- EC50 [7]: 34 nM
- CC50 at 48 h [11, 12]: 2.5 µM
- CC50 at 48 h [11, 13]: 2.5 µM

Structure (SMILES): CCN(CC)CCOc1ccc2c(c1)C(=O)c1cc(OCCN(CC)CC)ccc1-2 [Tilorone dihydrochloride]
- CC50 at 48 h [9]: > 10000 nM
- CC50 at 48 h [10]: > 10000 nM
- EC50 [5]: 70 nM
- EC50 [6, 14]: 500 nM
- EC50 [7]: 14 nM
- CC50 at 48 h [11, 13]: > 10 µM
